The source of these data is EP1661955A1, “Antifouling coating comprising a polymer with functional groups bonded to an enzyme” (Nederlandse Organisatie voor …, priority 2004, dated 2006).

This experiment concerns cyprid larvae of the barnacle species Balanus amphitrite. Nature of the experiment: Barnacle settlement inhibition test, enzymes in solution. Particulars: reference compound in solution; concentration at which 50 % settlement reduction takes place. The format is in vivo. An excerpt:
The barnacle settlement test determines settlement inhibitory activity of biocidal compounds. For this test mass reared cyprid larvae of the barnacle species Balanus amphitrite are used. Adult barnacles, kept under standardised conditions, are forced to produce naupliar larvae that are collected and grown up separately at constant temperature and a fixed light:dark period. When larvae reach the cyprid stage, which is the settling phase, they are collected and set apart prior to testing.
Test compounds are usually tested in a range of concentrations prepared directly in seawater or after pre-dissolution in a suitable solvent. Settlement tests are carried out in polystyrene multiwell plates. Wells contain either 1 mL of a test solution or 1 mL of a control solution. Plates are incubated for 24 - 48 hours under constant temperature and light:dark regime to allow settlement and metamorphosis of the cyprids.
After incubation the wells are screened and numbers of settled and non-settled larvae counted using a stereo microscope. Numbers of settled larvae are expressed as a percentage of total larvae in the well. Average % settlement is calculated in four replicates. Subsequently a settlement response curve in relation to substance concentration is drawn and an EC50 value, concentration at which 50 % settlement reduction takes place, calculated. […]

Structures are written as SMILES. Converted amounts (≈) assume the structure as drawn.

In turn, `CCCCCCCCn1sc(Cl)c(Cl)c1=O` [Seanine 211] displayed an EC50 value of 0.4 µg/mL (≈ 1.42 µM).
